Assays:
Aβtotal [1] = assay: Method 1: Aβtotal sandwich ELISA on media of SKNBE2 cells carrying APP 695 wild type; format: cell-based; conditions: Homo sapiens, SKNBE2 cells APP 695 wild type, 18 hours
Summary of the method: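 SKNBE2 cells expressing wild-type APP695 treated with compound for 18 h in Ultraculture; secreted Aβtotal measured by 6E10-capture/biotinylated 4G8 sandwich ELISA with fluorogenic peroxidase read-out. IC50 from 4-parameter fit, top/bottom fixed at 100/0, Hill slope 1; toxicity checked by WST-1.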

[2] = tested on: Notch-processing activity of the γ-secretase-complex; assay: Notch cell-free assay (NICD production from recombinant Notch substrate N99); format: biochemical, mouse; conditions: 1 nM of a test compound, 37° C. for 6 to 22 h, western blotting
Description: The Notch transmembrane domain is cleaved by gamma secretase to release Notch Intracellular C-terminal Domain (NICD).
To monitor the effect of compounds on NICD production, a recombinant Notch substrate (N99) was prepared. The Notch substrate, comprised of mouse Notch fragment (V1711-E1809), an N-terminal methionine and a C-terminal FLAG sequence ([…]), was expressed in E. coli and purified on a column containing an anti-FLAG M2 affinity matrix.
A typical Notch cell-free assay consisted of 0.3-0.5 nM Notch substrate, an enriched preparation of gamma secretase and 1 nM of a test compound (compound 45 of the present invention). Controls included a gamma secretase inhibitor (GSI), such as (2S)-N-[2-(3,5-difluorophenyl)acetyl]-L-alanyl-2-phenyl-glycine 1,1-dimethylethyl ester (DAPT) or (2S)-2-hydroxy-3-methyl-N-[(1S)-1-methyl-2-oxo-2-[[(1S)-2,3,4,5-tetrahydro-3-methyl-2-oxo-1H-3-benzazepin-1-yl]amino]ethyl]-butanamide (Semagacestat), and DMSO, the final concentration of DMSO being 1%. Recombinant Notch substrate was pre-treated with 17 μM DTT (1,4-dithiothreitol) and 0.02% SDS (Sodium Dodecyl Sulfate) and heated at 65° C. for 10 min. The mixture of substrate, gamma secretase and compound/DMSO was incubated at 37° C. for 6 to 22 hours (h). Six-hour incubation was sufficient to produce the maximal amount of NICD and the cleaved product remained stable for an additional 16 h. Reaction products were processed for SDS PAGE (Sodium Dodecyl Sulfate—Poly Acrylamide Gel Electrophoresis) and western blotting. Blots were probed with an anti-Flag M2 antibody, followed by LI-COR infrared secondary antibody, and analyzed with the Odyssey Infrared Imaging System (LI-COR® Biosciences).

Aβ42 [3] = assay: Method 2: Aβ42 Alphalisa on supernatant of SKNBE2 cells carrying APP 695 wild type; format: cell-based; conditions: Homo sapiens, SKNBE2 cells APP 695 wild type, overnight
Summary of the method: (§1)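 SKNBE2 cells expressing wild-type APP695 (10^4/well) were incubated overnight at 37 °C with compound at several concentrations. Secreted Aβ42 (C-terminal/N-terminal antibody pair) and Aβtotal (N-terminal/4G8 pair) were measured by AlphaLISA in the supernatant. IC50 values came from 4-parameter fits of percent of untreated control.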

Aβtotal [4] = assay: Method 2: Aβtotal Alphalisa on supernatant of SKNBE2 cells carrying APP 695 wild type; format: cell-based; conditions: Homo sapiens, SKNBE2 cells APP 695 wild type, overnight
Summary of the method: as §1

Aβ42 [5] = assay: Method 1: Aβ42 sandwich ELISA on media of SKNBE2 cells carrying APP 695 wild type (γ-secretase-modulating activity); format: cell-based; conditions: Homo sapiens, SKNBE2 cells APP 695 wild type, 18 hours
Summary of the method: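 SKNBE2 cells expressing wild-type APP695 exposed to compounds for 18 h in Ultraculture with 1% glutamine. Secreted Aβ42 in media quantified by sandwich ELISA (C-terminal capture, biotinylated 3D6 detection, TMB, 450 nm). IC50 from 4-parameter fit, top/bottom fixed 100/0, Hill slope fixed 1; toxicity checked by WST-1.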

Aβtotal [6] = assay: In vivo efficacy: Aβtotal in brain (ELISA); design: species or system mouse; conditions: brain soluble fraction; typical protocol: single oral dose, overnight fasted animals, after four hours
Source text: (§2) To determine whether acute administration of an Aβ42 lowering agent would reduce Aβ42 levels in vivo, non-transgenic rodents, e.g. mice or rats were used. Alternatively, two to three month old Tg2576 mice expressing APP695 containing the “Swedish” variant can be used or a transgenic mouse model developed by Dr. Fred Van Leuven (K.U.Leuven, Belgium) and co-workers, with neuron-specific expression of a clinical mutant of the human amyloid precursor protein [V717I] (Moechars et al., 1999 J. Biol. Chem. 274, 6483). Young transgenic mice have high levels of Aβ in the brain but no detectable Aβ deposition. At approximately 6-8 months of age, the transgenic mice start to display spontaneous, progressive accumulation of β-amyloid (A13) in the brain, eventually resulting in amyloid plaques within the subiculum, hippocampus and cortex. Animals treated with the Aβ42 lowering agent were examined and compared to those untreated or treated with vehicle and brain levels of soluble Aβ42 and total Aβ would be quantitated by standard techniques, for example, using ELISA. Treatment periods varied from hours to days and were adjusted based on the results of the Aβ42 lowering once a time course of onset of effect could be established.
(§3) A typical protocol for measuring Aβ42 lowering in vivo is shown but it is only one of many variations that could be used to optimize the levels of detectable Aβ. For example, Aβ42 lowering compounds were formulated in 20% of Captisol® (a sulfobutyl ether of β-cyclodextrin) in water or 20% hydroxypropyl β cyclodextrin. The Aβ42 lowering agents were administered as a single oral dose or by any acceptable route of administration to overnight fasted animals. After four hours, the animals were sacrificed and Aβ42 levels were analysed.
(§4) Blood was collected by decapitation and exsanguinations in EDTA-treated collection tubes. Blood was centrifuged at 1900 g for 10 minutes (min) at 4° C. and the plasma recovered and flash frozen for later analysis. The brain was removed from the cranium and hindbrain. The cerebellum was removed and the left and right hemisphere were separated. The left hemisphere was stored at −18° C. for quantitative analysis of test compound levels. The right hemisphere was rinsed with phosphate-buffered saline (PBS) buffer and immediately frozen on dry ice and stored at −80° C. until homogenization for biochemical assays.
(§5) Mouse brains were resuspended in 10 volumes of 0.4% DEA (diethylamine)/50 mM NaCl pH 10 (for non-transgenic animals) or 0.1% 3-[(3-cholamidopropyl)-dimethyl-ammonio]-1-propanesulfonate (CHAPS) in tris buffered saline (TBS) (for transgenic animals) containing protease inhibitors (Roche-11873580001 or 04693159001) per gram of tissue, e.g. for 0.158 g brain, add 1.58 ml of 0.4% DEA. All samples were sonicated for 30 sec on ice at 20% power output (pulse mode). Homogenates were centrifuged at 221.300×g for 50 min. The resulting high speed supernatants were then transferred to fresh tubes and were optionally further purified before the next step. A portion of the supernatant was neutralized with 10% 0.5 M Tris-HCl and this was used to quantify Aβtotal.
(§6) The obtained supernatants were purified with Water Oasis HLB reverse phase columns (Waters Corp., Milford, Mass.) to remove non-specific immunoreactive material from the brain lysates prior subsequent Aβ detection. Using a vacuum manifold, all solutions were passed through the columns at a rate of approximately 1 ml/min, so the vacuum pressure was adjusted accordingly throughout the procedure. Columns were preconditioned with 1 ml of 100% MeOH, before equilibration with 1 ml of H2O, Non-neutralized brain lysates were loaded onto the columns. The loaded samples were then washed twice with the first wash performed with 1 ml of 5% MeOH, and the second wash with 1 ml of 30% MeOH. Finally, the Aβ was eluted from the columns and into 100×30 mm glass tubes, with a solution of 90% MeOH with 2% NH4OH. […]

Aβ42 [7] = assay: In vivo efficacy: Aβ42 lowering in brain (ELISA); design: species or system mouse; conditions: brain soluble fraction; typical protocol: single oral dose, overnight fasted animals, after four hours
Source text: as §2, §3, §4, §5, §6

For `COc1ccc(C)c(-n2nc3c(Nc4ccc(-c5cnc(C)o5)nc4)cccc3c2C)c1` [Compound 45, 2-(5-methoxy-2-methylphenyl)-3-methyl-N-[6-(2-methyl-5-oxazolyl)-3-pyridinyl]-2H-indazol-7-amine], the IC50 (Aβtotal [1]) was > 3000 nM, the “effect on the Notch-processing activity of the γ-secretase-complex (production of NICD)” value (shortened to “effect on the Notch-processing activity”) [2] was “did not show an effect” and the IC50 (Aβ42 [3]) was 18 nM. For the same compound, the IC50 (Aβtotal [4]) was 6760 nM and the IC50 (Aβ42 [5]) was 23 nM.
For `COc1nc(Nc2cccc3cn(CC(F)(F)F)nc23)ccc1-n1cnc(C)c1` [Compound 54, N-[6-methoxy-5-(4-methyl-1H-imidazol-1-yl)-2-pyridinyl]-2-(2,2,2-trifluoroethyl)-2H-indazol-7-amine], the “Aβtotal (% Ctrl) _Mean” value (Aβtotal [6]) was 109 % Ctrl, the IC50 (Aβ42 [3]) was 66 nM and the “Aβ42 (% Ctrl) _Mean” value (Aβ42 [7]) was 72 % Ctrl. The IC50 (Aβtotal [4]) was > 10000 nM and the melting point was 206 °C.
For `C[C@H](NC(=O)Cc1cc(F)cc(F)c1)C(=O)NC(C(=O)OC(C)(C)C)c1ccccc1` (stereo partly drawn) [DAPT, (2S)-N-[2-(3,5-difluorophenyl)acetyl]-L-alanyl-2-phenyl-glycine 1,1-dimethylethyl ester], the “effect on the Notch-processing activity” value [2] was “blocked”.
For `CC(C)[C@H](O)C(=O)N[C@@H](C)C(=O)N[C@@H]1C(=O)N(C)CCc2ccccc21` [Semagacestat, (2S)-2-hydroxy-3-methyl-N-[(1S)-1-methyl-2-oxo-2-[[(1S)-2,3,4,5-tetrahydro-3-methyl-2-oxo-1H-3-benzazepin-1-yl]amino]ethyl]-butanamide], the “effect on the Notch-processing activity” value [2] was “blocked”.

— patent US20120095036A1, “NOVEL SUBSTITUTED INDAZOLE AND AZA-INDAZOLE DERIVATIVES AS GAMMA SECRETASE MODULATORS” (priority 2009, published 2012)
